# US7538083B2, “Compositions and methods for the potentiation of immune responses against target antigens” (Intercell AG, priority 2003, dated 2009)
# “Also recorded” adds a separate entry of the source.
# Tests used:
# [1] = tested on: malaria mimetic UK39 (serum IgG against it); assay: UK39 ELISA of mouse sera after immunization with UK39 IRIV with or without melittin; type: in vivo; conditions: Balb/c mice, UK39 IRIV (20 μg UK39) + 10 μg melittin; sera day 21 and 35, IgG ELISA read at 492 nm
# Protocol: Balb/c mice were immunized with 100 μl PBS containing: the malaria mimetic UK39 (20 μg UK39) in combination with an IRIV with or without 10 μg Melittin. For the UK39 ELISA, ELISA plates were coated over night at 4° C. with 10 μg/ml UK39 in PBS. After washing with PBS 0.05% Tween20 plates were blocked with 5% dry milk in PBS 2 h at 37° C. Mouse sera from day 21 and 35 were initially diluted 1:10 and titrated in serial 1:2 dilutions in PBS 0.05% Tween20 0.5% dry milk. After 2 h incubation at 37° C. plates were washed and incubated with goat […]-mouse IgG HRP Ab (BD Bioscience) (1:5000 in PBS 0.05% Tween20 0.5% dry milk) 1 h 37° C. Plates were developed with OPD-substrate (OPD (O-Phenylenediamine tablets, Fluka, Switzerland, 1 tablet in 50 ml citrate buffer+50 μl H2O2) for 30 min. The reaction was stopped with 1 M H2SO4 and plates were read at 492 nm.
# UK39 IRIV: 4 mg UK39, 4 mg influenza A/Singapore, 32 mg phosphatidylcholine (PC) and 8 mg phosphatidylethanolamine (PE) were resuspended in 4 ml 100 mM OEG in PBS (OEG-PBS), sonicated for 1 min and centrifugated for 1 h at 100′000×g at 20° C. […]
# UK39 ELISA: ELISA plates were coated over night at 4° C. with 10 μg/ml UK39 in PBS. […] Plates were developed with OPD-substrate (OPD (O-Phenylendiamine tablets, Fluka, Switzerland, 1 tablet in 50 ml citrate buffer+50 μl H2O2) for 30 min. The reaction was stopped with 1 M H2SO4 and plates were read at 492 nm.
# [2] = tested on: OVA257-64 peptide specific IFNγ+ CD8+ T cells; design: species or system C57Bl/6 mice; conditions: mouse, in vivo
# [3] = tested on: IFNγ+ CD8+ T cells specific for T4 peptide VVYDFLKCM (Kb/T404-412); assay: Splenic T4-specific IFNγ+ CD8+ T cell frequency after i.m. vaccination with T4/melittin-derived fusion peptide with or without ODN; type: in vivo, C57BL/6 (B6) mice; conditions: B6 mice, 35 nmol i.m.; for dependence of adjuvant activity on CpG motifs in the ODN: NSS+ ODN-1982 (no CpG) versus ISS+ ODN-1826 (CpG)
# Source text: The adjuvant activity of the melittin-derived peptide thus acts synergistically even with oligodeoxynucleotides that lack any immunostimulatory sequences. C57BL/6 (B6) mice were either not immunized (group 1) or vaccinated i.m. with 35 nmol of peptides alone (group 2) or mixed with oligodeoxynucleotide (group 3), not containing (A; NSS^+ ODN-1982; SEQ ID NO: 7), or containing (B; ISS^+ ODN-1826; SEQ ID NO: 6) CpG motifs. Spleen cells obtained from immune mice 12 days post vaccination were restimulated ex vivo with the T4 peptide VVYDFLKCM (K^b/T404-412, SEQ ID NO: 4). Mean number of specific IFNγ^+ CD8^+ T cells/10^5 CD8^+ T cells±SD (of 6 mice per group) averaged from two independent experiments are shown.
# Fusion of a sample antigen (here, T4 peptide) to the melittin-derived peptide and binding ODN to them creates potent immunogens for CD8^+ T cells. A sample target antigen, the SV40-derived T4 peptide T404-417 VVYDFLKCMVYNIP (SEQ ID NO: 5) was fused to a duplicated amino acid sequence derived from melittin (KRKRQKRKRQ, SEQ ID NO: 2). B6 mice were vaccinated i.m. with 35 nmol of these peptides alone (group 2), or mixed with ODN (group 3), not containing (A; NSS+ ODN-1982), or containing (B; ISS+ ODN-1826) CpG motifs (FIG. 1). Spleen cells obtained from immune mice 12 days post-vaccination were restimulated ex vivo with the T4 peptide VVYDFLKCM (SEQ ID NO: 4) (Kb/T404-412). Mean numbers of specific IFNγ^+ CD8^+ T cells/10^5 CD8^+ T cells±SD (of 6 mice per group) averaged from two independent experiments are shown.
# C57BL/6JBom (B6) mice (H-2b) were bred and kept under standard pathogen-free conditions in the animal colony of Ulm University (Ulm, Germany). Male/female mice were used at 12-16 wks of age. The preparation of cationic peptide/ODN vaccines CpG containing ODN-1826 ([…]; ISS-1826, SEQ ID NO: 6) and its control ODN-1982 ([…]; NSS-1982, SEQ ID NO: 7) were obtained from MWG (Ebersberg, Germany). ODN were synthesized with phosphorothioate backbones. […] The number of CD8^+ IFNγ^+ T cells per 10^5 splenic CD8^+ T cells was determined by FCM analyses.
compound,measurement,setting,value
CC[C@H](C)[C@H](NC(=O)CN)C(=O)NCC(=O)N[C@@H](C)C(=O)N[C@H](C(=O)N[C@@H](CC(C)C)C(=O)N[C@@H](CCCCN)C(=O)N[C@H](C(=O)N[C@@H](CC(C)C)C(=O)N[C@H](C(=O)N[C@H](C(=O)NCC(=O)N[C@@H](CC(C)C)C(=O)N1CCC[C@H]1C(=O)N[C@@H](C)C(=O)N[C@@H](CC(C)C)C(=O)N[C@H](C(=O)N[C@@H](CO)C(=O)N[C@@H](Cc1c[nH]c2ccccc12)C(=O)N[C@H](C(=O)N[C@@H](CCCCN)C(=O)N[C@@H](CCCNC(=N)N)C(=O)N[C@@H](CCCCN)C(=O)N[C@@H](CCCNC(=N)N)C(=O)N[C@@H](CCC(N)=O)C(=O)N[C@@H](CCC(N)=O)C(N)=O)[C@@H](C)CC)[C@@H](C)CC)[C@@H](C)O)[C@@H](C)O)C(C)C)C(C)C [melittin],humoral immune response (B cell immunity) against antigen UK39 coupled to IRIV,[1],adjuvant effect; also recorded: further enhanced
CKRKRQKRKRQSIINFEKL [Cys-Mel-OVA257-64],adjuvant effect in combination with IRIVs (peptide specific IFNγ+ CD8+ T cells),[2],further potentiated by its combination with IRIVs; also recorded: further synergizes with IRIVs
KRKRQKRKRQ (Synthetic peptide derived from Apis mellifera),adjuvant activity (specific IFNγ+ CD8+ T cells/10^5 CD8+ T cells),"[3]; combined with target antigen T4 and oligodeoxynucleotide, spleen cells 12 days post vaccination restimulated ex vivo with T4 peptide",significant adjuvant activity
same,dependence of adjuvant activity on CpG motifs in the ODN,[3],not dependent on the presence of CpG sequences in the ODN
same,dependence of adjuvant activity on CpG motifs in the ODN,[3]; listed as KRKRQKRKRQ,does not depend on the presence of CpG motifs
